This is an account of results in patent publication EP3381898A1, “SYMMETRICAL TRIS-ARYL-AMIDE DERIVATIVES AND THEIR USE AS ANTI-HEPARANASE” (priority 2017, dated 2018).

Structures can show the parent of a compound that is named as a salt.

The assay has as its target T1, heparanase (Homo sapiens, UniProt Q9Y251).
T1 sequence (Q9Y251 158-543 limits assumed): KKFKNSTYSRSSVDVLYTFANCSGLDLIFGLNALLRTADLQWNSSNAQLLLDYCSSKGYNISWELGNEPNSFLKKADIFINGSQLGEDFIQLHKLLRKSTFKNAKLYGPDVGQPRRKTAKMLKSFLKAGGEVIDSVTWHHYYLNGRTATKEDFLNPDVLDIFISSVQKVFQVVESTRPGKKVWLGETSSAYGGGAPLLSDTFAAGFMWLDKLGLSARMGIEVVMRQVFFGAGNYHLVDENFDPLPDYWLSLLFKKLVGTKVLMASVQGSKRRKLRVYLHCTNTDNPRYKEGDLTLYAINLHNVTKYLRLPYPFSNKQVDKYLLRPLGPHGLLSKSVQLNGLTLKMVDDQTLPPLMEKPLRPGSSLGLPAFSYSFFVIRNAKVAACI
T1 sequence (Q9Y251 36-109 limits assumed): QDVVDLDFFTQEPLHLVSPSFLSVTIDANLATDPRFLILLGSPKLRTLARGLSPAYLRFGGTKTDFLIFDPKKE
The assay can be described thus: AGA*IA assay: heparanase-catalyzed fondaparinux cleavage, colorimetric (WST-1). It is filed as biochemical. As to conditions: Table 1; range activity classes, AGA*IA test on Fondaparinux; read-out: AGAIA assay IC50. Here is the method:
All compounds were tested in a simple, accurate and robust microplate assay based on the cleavage of the synthetic heparin fragment, the pentasaccharide Fondaparinux (AGA*IA). This assay was originally developed by Hammond and coworkers (Hammond E, Li CP, Ferro V. Development of a colorimetric assay for heparanase activity suitable for kinetic analysis and inhibitor screening. Anal. Biochem. 396(1), 112-116 (2010)), where Fondaparinux corresponds to the methyl glycoside of the antithrombin III (ATIII)-activating pentasaccharide sequence of heparin. Fondaparinux is cleaved by heparanase to generate a reducing disaccharide, which can be quantitatively measured via a colorimetric or a fluorescence assay, the last by the fluorescent sensor polymer-H [Schiemann S, Lühn S, Alban S. Development of both colorimetric and fluorescence heparinase activity assays using fondaparinux as substrate. Anal. Biochem. 427(1), 82-89 (2012)].
The assay measures the appearance of the disaccharide product of heparanase-catalyzed fondaparinux cleavage colorimetrically using the tetrazolium salt WST-1. Assay was essentially performed as described with minor modifications. Briefly, NUNC ELISA 96-well plates were pre-treated with a solution of 4% BSA (bovin serum albumin) in phosphate-buffered saline containing 0.05% Tween 20 (PBST), for 2 h at 37°C, then washed three times with PBST, dried by tapping on paper towel and stored at -20°C. Before use, once again, the plates were washed with PBST.
Assay was carried out with 100 µl/well of assay solution containing 40 mM sodium acetate buffer (pH 5.0), 100 µM fondaparinux, 2.5 nM heparanase and serial dilutions of test compounds (tested in triplicate). Plates were sealed with adhesive tape and incubated, in the dark, for 3 h at 37°C, followed by development with 1.69 mM of the tetrazolium salt WST-1 solution in 0.1 M NaOH, for 1 h at 60°C. Then, the absorbance at 560 nm was measured through a microplate reader (Victor 3, Perkin Elmer).
Finally, the measurements were corrected by subtracting both the reagent background and the inner absorbance value of test compound.
For orientation: Tetrazolium assays rely on reduction of a dye to a coloured formazan, in cell work by metabolically active cells.
The IC50 is the concentration needed to halve the response being measured. Consider `CC(C)CC(NC(=O)Cc1cccc(NC(=O)c2cc(NC(=O)c3cccc(NC(=O)Nc4cccc(C(=O)Nc5cc(C(=O)Nc6cccc(CC(=O)NC(CC(C)C)C(=O)O)c6)n(C)c5)c4)c3)cn2C)c1)C(=O)O` (stereo not drawn) [Compound 12a, 2,2'-{carbonylbis[imino-3,1-phenylenecarbonylimino(1-methyl-1H-pyrrole-4,2-diyl)carbonylimino-3,1-phenylene(1-oxoethane-2,1-diyl)imino]}bis(4-methylpentanoic acid)], for which the IC50 is 1 to 20 µM.
In the case of `Cn1cc(NC(=O)c2cccc(NC(=O)Nc3cccc(C(=O)Nc4cc(C(=O)Nc5cccc(CC(=O)N[C@@H](CCCCN)C(=O)O)c5)n(C)c4)c3)c2)cc1C(=O)Nc1cccc(CC(=O)N[C@@H](CCCCN)C(=O)O)c1` [Compound 12c, 5,5'-{carbonylbis[imino-3,1-phenylenecarbonylimino(1-methyl-1H-pyrrole-4,2-diyl)carbonylimino-3,1-phenylene(1-oxoethane-2,1-diyl)imino]}bis(1-aminium-6-hexanoic acid) trifluoroacetate salt], the IC50 lay within 1 to 20 µM.
Take `CC(NC(=O)Cc1cccc(NC(=O)c2cc(NC(=O)c3cccc(NC(=O)Nc4cccc(C(=O)Nc5cc(C(=O)Nc6cccc(CC(=O)NC(C)C(=O)O)c6)n(C)c5)c4)c3)cn2C)c1)C(=O)O` (stereo not drawn) [Compound 12d, 2,2'-{carbonylbis[imino-3,1-phenylenecarbonylimino(1-methyl-1H-pyrrole-4,2-diyl)carbonylimino-3,1-phenylene(1-oxoethane-2,1-diyl)imino]}dipropanoic acid]: the IC50 was 1 to 20 µM.
`Cn1cc(NC(=O)c2cccc(NC(=O)Nc3cccc(C(=O)Nc4cc(C(=O)Nc5cccc(CC(=O)N[C@@H](CCC(=O)O)C(=O)O)c5)n(C)c4)c3)c2)cc1C(=O)Nc1cccc(CC(=O)N[C@@H](CCC(=O)O)C(=O)O)c1` [Compound 12f, 2,2'-{carbonylbis[imino-3,1-phenylenecarbonylimino(1-methyl-1H-pyrrole-4,2-diyl)carbonylimino-3,1-phenylene(1-oxoethane-2,1-diyl)imino]}dipentandioic acid]: the IC50 lay within 1 to 20 µM.
As for `Cn1cc(NC(=O)c2cccc(NC(=O)Nc3cccc(C(=O)Nc4cc(C(=O)Nc5cccc(CC(=O)O)c5)n(C)c4)c3)c2)cc1C(=O)Nc1cccc(CC(=O)O)c1` [Compound 12h, 2,2'-(((4,4'-((3,3'-(Carbonylbis(azanediyl))bis(benzoyl))bis(azanediyl))bis(1-methyl-1H-pyrrole-4,2-diyl-2-carbonyl))bis(azanediyl))bis(3,1-phenylene))diacetic acid], the IC50 lay within 1 to 20 µM.
As for `Cn1cc(NC(=O)c2cccc(NC(=O)Nc3cccc(C(=O)Nc4cc(C(=O)Nc5ccc(CC(=O)O)cc5)n(C)c4)c3)c2)cc1C(=O)Nc1ccc(CC(=O)O)cc1` [Compound 12j, 2,2'-(((4,4'-((3,3'-(carbonylbis(azanediyl))bis(benzoyl))bis(azanediyl))bis(1-methyl-1H-pyrrole-2,2'-carbonyl))bis(azanediyl))bis(4,1-phenylene))diacetic acid], the IC50 fell in the range of 1 to 20 µM.
For the compound `Cn1cc(NC(=O)c2cccc(NC(=O)Nc3cccc(C(=O)Nc4cc(C(=O)Nc5cccc(CC(=O)NCC(=O)NCC(=O)O)c5)n(C)c4)c3)c2)cc1C(=O)Nc1cccc(CC(=O)NCC(=O)NCC(=O)O)c1` [Compound 13b, Disodium 2,2'-{carbonylbis[imino-3,1-phenylenecarbonylimino(1-methyl-1H-pyrrole-4,2-diyl)carbonylimino-3,1-phenylene(1-oxoethane-2,1-diyl)imino(1-oxoethane-2,1-diyl)imino]}diethanoate salt], the concentration for half-maximal inhibition (IC50) lay within 1 to 20 µM.
Turning to `CC(C)CC(NC(=O)Cc1cccc(NC(=O)c2cc(NC(=O)c3cc(NC(=O)Nc4cc(C(=O)Nc5cc(C(=O)Nc6cccc(CC(=O)NC(CC(C)C)C(=O)O)c6)n(C)c5)n(C)c4)cn3C)cn2C)c1)C(=O)O` (stereo not drawn) [Compound 17a, 2,2'-{carbonylbis[imino(1-methyl-1H-pyrrole-4,2-diyl)carbonylimino(1-methyl-1H-pyrrole-4,2-diyl)carbonylimino-3,1-phenylene(1-oxoethane-2,1-diyl)imino]}bis(4-methylpentanoic acid)], the IC50 was in the range of 1 to 20 µM.
As to `C[C@H](NC(=O)Cc1cccc(NC(=O)c2cc(NC(=O)c3cc(NC(=O)Nc4cc(C(=O)Nc5cc(C(=O)Nc6cccc(CC(=O)N[C@@H](C)C(=O)O)c6)n(C)c5)n(C)c4)cn3C)cn2C)c1)C(=O)O` [Compound 17d, 2,2'-{carbonylbis[imino(1-methyl-1H-pyrrole-4,2-diyl)carbonylimino(1-methyl-1H-pyrrole-4,2-diyl)carbonylimino-3,1-phenylene(1-oxoethane-2,1-diyl)imino]}dipropanoic acid], the concentration for half-maximal inhibition (IC50) lay in the range of 1 to 20 µM.
For the compound `Cn1cc(NC(=O)Nc2cc(C(=O)Nc3cc(C(=O)Nc4cccc(CC(=O)N[C@@H](CCC(=O)O)C(=O)O)c4)n(C)c3)n(C)c2)cc1C(=O)Nc1cc(C(=O)Nc2cccc(CC(=O)N[C@@H](CCC(=O)O)C(=O)O)c2)n(C)c1` [Compound 17f, 2,2'-{carbonylbis[imino-3,1-phenylenecarbonylimino(1-methyl-1H-pyrrole-4,2-diyl)carbonylimino-3,1-phenylene(1-oxoethane-2,1-diyl)imino]}dipentandioic acid], the half-inhibitory concentration (IC50) was in the range of 1 to 20 µM.
As for `Cn1cc(NC(=O)Nc2cc(C(=O)Nc3cc(C(=O)Nc4cccc(CC(=O)N[C@@H](CCCCN)C(=O)O)c4)n(C)c3)n(C)c2)cc1C(=O)Nc1cc(C(=O)Nc2cccc(CC(=O)N[C@@H](CCCCN)C(=O)O)c2)n(C)c1` [Compound 35c, (2S,2'S)-2,2'-((2,2'-(((4,4'-((4,4'-(carbonylbis(azanediyl))bis(1-methyl-1H-pyrrole-4,2-diyl-2-carbonyl))bis(azanediyl))bis(1-methyl-1H-pyrrole-4,2-diyl-2-carbonyl))bis(azanediyl))bis(3,1-phenylene))bis(acetyl))bis(azanediyl))bis(6-aminohexanoic acid) dihydrochloride], the IC50 fell in the range of 1 to 20 µM.
As to `CC(C)C[C@H](NC(=O)Cc1cccc(NC(=O)c2cc(NC(=O)c3ccc(Oc4ccc(C(=O)Nc5cc(C(=O)Nc6cccc(CC(=O)N[C@@H](CC(C)C)C(=O)O)c6)n(C)c5)cc4)cc3)cn2C)c1)C(=O)O` [Compound 36a, (2S,2'S)-2,2'-((2,2'-(((4,4'-((4,4'-Oxybis(benzoyl))bis(azanediyl))bis(1-methyl-1H-pyrrole-2,2'-carbonyl))bis(azanediyl))bis(3,1-phenylene))bis(acetyl))bis(azanediyl))bis(4-methylpentanoic acid)], the IC50 was in the range of 1 to 20 µM.
Regarding `Cn1cc(NC(=O)c2ccc(Oc3ccc(C(=O)Nc4cc(C(=O)Nc5cccc(CC(=O)NCC(=O)O)c5)n(C)c4)cc3)cc2)cc1C(=O)Nc1cccc(CC(=O)NCC(=O)O)c1` [Compound 36b, 2,2'-((2,2'-(((4,4'-((4,4'-Oxybis(benzoyl))bis(azanediyl))bis(1-methyl-1H-pyrrole-2,2'-carbonyl))bis(azanediyl))bis(3,1-phenylene))bis(acetyl))bis(azanediyl))diacetic acid], the IC50 lay in the range of 1 to 20 µM.
With `Cn1cc(NC(=O)c2ccc(Oc3ccc(C(=O)Nc4cc(C(=O)Nc5cccc(CC(=O)N[C@@H](CCCCN)C(=O)O)c5)n(C)c4)cc3)cc2)cc1C(=O)Nc1cccc(CC(=O)N[C@@H](CCCCN)C(=O)O)c1` [Compound 36c, (2S,2'S)-2,2'-((2,2'-(((4,4'-((4,4'-oxybis(benzoyl))bis(azanediyl))bis(1-methyl-1H-pyrrole-4,2-diyl-2-carbonyl))bis(azanediyl))bis(3,1-phenylene))bis(acetyl))bis(azanediyl))bis(6-aminohexanoic acid) dihydrochloride], the IC50 was 1 to 20 µM.
Take `C[C@H](NC(=O)Cc1cccc(NC(=O)c2cc(NC(=O)c3ccc(Oc4ccc(C(=O)Nc5cc(C(=O)Nc6cccc(CC(=O)N[C@@H](C)C(=O)O)c6)n(C)c5)cc4)cc3)cn2C)c1)C(=O)O` [Compound 36d, (2S,2'S)-2,2'-((2,2'-(((4,4'-((4,4'-Oxybis(benzoyl))bis(azanediyl))bis(1-methyl-1H-pyrrole-2,2'-carbonyl))bis(azanediyl))bis(3,1-phenylene))bis(acetyl))bis(azanediyl))dipropanoic acid]: the IC50 fell in the range of 1 to 20 µM.
